Tested on: SH-SY5Y cells
Assay: Gene expression analysis by RNA sequencing in the presence of Aβ
Type: cell-based, human
Settings: 5 μM, with Aβ
Text: The SH-S5Y5 neuroblastoma cell line was used for pre-clinical analysis. The SH-S5Y5 cell line is commonly used as a model for neurodegenerative disorders as the cells can be converted to various types of functional neurons by the addition of specific compounds (see, e.g., Xicoy et al., 2017, Molecular Neurodegeneration, 12: 10). In addition, the SH-S5Y5 cell line has been used widely in experimental neurological studies, including analysis of neuronal differentiation, metabolism, and function related to neurodegenerative processes, neurotoxicity and neuroprotection (see, e.g., Datki et al., 2003, Brain Research Bulletin, 62(3): 22-229; and Xie et al., 2010, Chinese Medical Journal, 123(8): 1086-1092).
Total RNA was isolated from cells using TRIzol in accordance with the manufacturer's instructions (Invitrogen, Carlsbad, CA, USA). RNA concentration and quality was assessed using a NanoDrop spectrophotometer. Only samples with a 260/280 ratio of ≥1.8 were used for further analysis.
Messenger RNA (mRNA) was purified from total RNA using poly-T oligo attached magnetic beads. After fragmentation, cDNA synthesis was performed in accordance with the manufacturer's instructions (Illumina, San Diego, CA, USA) to generate a directional and non-directional library. Libraries were checked with Qubit, real-time PCR was performed for quantification, and size distribution detection was performed using the Bioanalyzer. Quantified libraries were pooled and sequenced on an Illumina platform, according to the manufacturer's instructions.
Raw reads were filtered and mapped to human reference genome (GRCh38/hg38) using HISAT2. Differential gene expression analysis was performed using R Package DEG seq2. […] Manual annotation of genes previously associated with specific neurodegenerative disorders and dementias was performed following a text mining analysis.

Compound COc1cc2c(cc1OC)C(=O)C(CC1CCN(Cc3ccccc3)CC1)C2 (stereo not drawn) [Donepezil] has an ATP13A2 gene expression (control 7.789, P 0.022) of 5.931, a TUBB4A gene expression (control 7.889, P 0.013) of 12.522 and a C19orf12 gene expression (control 8.149, P 0.002) of 8.062. The COMT gene expression (control 8.395, P 0.009) was 7.242, the CLCN6 gene expression (control 8.460, P 0.007) was 9.489 and the SLC2A1 gene expression (control 8.472, P 0.018) was 9.539. The KIF5A gene expression (control 8.491, P 0.023) was 7.978, the MT-TE gene expression (control 8.733, P 0.049) was 14.784 and the ASTN2 gene expression (control 8.739, P 0.008) was 10.467. The GAP43 gene expression (control 8.840, P 0.016) was 14.884, the HTRA1 gene expression (control 8.986, P 0.035) was 3.452 and the GPT2 gene expression (control 9.062, P 0.018) was 9.323. The RELN gene expression (control 9.086, P 0.007) was 8.830, the MAP2 gene expression (control 9.232, P 0.018) was 13.284 and the FAR1 gene expression (control 9.502, P 0.001) was 9.330. The ULK1 gene expression (control 9.616, P 0.008) was 7.435, the MT-TR gene expression (control 9.625, P 0.053) was 7.395 and the AUH gene expression (control 9.982, P 0.001) was 9.689. For the same compound, the UBQLN2 gene expression (control 10.132, P 0.055) was 10.681, the TP53 gene expression (control 10.247, P 0.010) was 10.184 and the RNF216 gene expression (control 10.517, P 0.005) was 11.360. It also gave an LMNB1 gene expression (control 10.575, P 0.020) of 13.789, an SDHA gene expression (control 10.591, P 0.002) of 10.690 and a CTSF gene expression (control 10.619, P 0.034) of 12.207. For the same compound, the PHIP gene expression (control 10.884, P 0.000) was 10.131, the NEAT1 gene expression (control 10.972, P 0.010) was 8.854 and the GSR gene expression (control 10.993, P 0.009) was 14.077. It also gave an NBEA gene expression (control 11.016, P 0.010) of 12.180, an HEXB gene expression (control 11.029, P 0.010) of 11.767 and an NIPA1 gene expression (control 11.189, P 0.025) of 10.862. It also gave a PDGFRA gene expression (control 11.237, P 0.009) of 11.624, an SORT1 gene expression (control 11.268, P 0.004) of 9.054 and a DLAT gene expression (control 11.385, P 0.035) of 10.390. It also gave a CTSA gene expression (control 11.863, P 0.001) of 12.014, an AIFM1 gene expression (control 11.948, P 0.026) of 10.769 and a KIF4A gene expression (control 12.106, P 0.000) of 12.317. It also gave a PIK3CA gene expression (control 12.209, P 0.057) of 9.685, an MT-TM gene expression (control 12.408, P 0.006) of 7.334 and a PSEN1 gene expression (control 12.549, P 0.033) of 10.463. It also gave a CST3 gene expression (control 12.563, P 0.049) of 14.607, a PNKP gene expression (control 12.578, P 0.015) of 13.753 and a UBE4A gene expression (control 12.586, P 0.050) of 11.589. It also gave a PANK2 gene expression (control 12.767, P 0.010) of 5.414, a PINK1 gene expression (control 12.825, P 0.001) of 9.640 and an SERPINI1 gene expression (control 12.857, P 0.025) of 12.924. It also gave an NEFL gene expression (control 13.063, P 0.010) of 22.943, a TOMM40 gene expression (control 13.758, P 0.001) of 15.441 and a PMPCA gene expression (control 13.790, P 0.022) of 11.969. The PRKAR1B gene expression (control 13.838, P 0.000) was 14.889, the NGF gene expression (control 14.274, P 0.012) was 1.165 and the EIF2B5 gene expression (control 14.483, P 0.017) was 12.247. The NEFH gene expression (control 14.777, P 0.018) was 13.335, the TBK1 gene expression (control 15.661, P 0.052) was 12.891 and the SPG21 gene expression (control 15.666, P 0.035) was 17.306. For the same compound, the MIR103A2 gene expression (control 15.688, P 0.029) was 9.508, the DNAJC5 gene expression (control 16.143, P 0.004) was 18.101 and the SDHAF1 gene expression (control 16.174, P 0.024) was 17.490. For the same compound, the ALDH18A1 gene expression (control 16.206, P 0.012) was 18.398, the BIRC6 gene expression (control 16.315, P 0.045) was 14.545 and the SMCR8 gene expression (control 16.386, P 0.025) was 9.923. The SCARB2 gene expression (control 16.783, P 0.011) was 20.762, the HCFC1 gene expression (control 17.149, P 0.014) was 21.365 and the MT-TV gene expression (control 17.283, P 0.000) was 9.882. It also gave a KCTD7 gene expression (control 18.066, P 0.016) of 14.737, a CDK1 gene expression (control 18.213, P 0.001) of 31.665 and a WDR45 gene expression (control 18.358, P 0.008) of 10.730. The ATP6V1A gene expression (control 18.408, P 0.038) was 16.105, the ATXN7L3B gene expression (control 19.279, P 0.006) was 20.868 and the MT-TY gene expression (control 19.436, P 0.034) was 14.109. It also gave a DNAJB6 gene expression (control 19.482, P 0.010) of 13.438, an MT-TN gene expression (control 19.578, P 0.001) of 4.546 and a DNMT1 gene expression (control 19.641, P 0.019) of 19.982.
